# Experimental data taken from publication PMC12376128, “In vitro and In Vivo Drug Metabolism Analysis of BPI-460372 - A Covalent TEAD1/3/4 Inhibitor” (Current Drug Metabolism, 2025).
# Tests used:
# [1] = Metabolite identification in rat plasma, urine, feces and bile; assay type: in vivo, SD rats; conditions: for Relative abundance of MS peak areas, Rat Bile 0-48 h / Relative abundance of MS peak areas, Rat Feces 0-48 h / Relative abundance of MS peak areas, Rat Urine 0-48 h: oral 6 mg/kg BPI-460372, average of male and female pooled samples; for Relative abundance of MS peak areas, Rat Plasma 0-24 h: oral 12 mg/kg BPI-460372, average of male and female pooled samples
# Experimental: (§1) The plasma samples were acquired from SD rats (n=6, 3 female and 3 male) and beagle dogs (n=6, 3 female and 3 male) after administration of 12 mg/kg and 8 mg/kg of BPI-460372, respectively. The rat urine, feces, and bile samples were acquired in SD rats after administration of 6 mg/kg of BPI-460372.
# (§2) Equal volume from each rat was pooled together to get 1 male and 1 female 0-24 h plasma samples. An equal percentage by volume of individual urine sample (0-8, 8-24, and 24-48 h) from 3 female and 3 male rats was pooled by time interval across rats, respectively, resulting in two pooled urine samples (1 male and 1 female). An equal percentage by weight of individual feces samples (0-8, 8-24, and 24-48 h) was pooled by time interval across female and male rats, resulting in two pooled fecal samples. An equal percentage by volume of individual bile samples (0-4, 4-8, 8-24, and 24-48 h) was pooled by time interval across female and male rats, resulting in two pooled bile samples. […] Equal volumes from 3 female and 3 male rats were pooled together to get two 0-48 h plasma samples. For blank samples of plasma, urine, and bile, equal volume was pooled across subjects. For a blank sample of feces, equal weight was pooled across rats.
# (§3) The pooled plasma, feces, and bile samples were extracted by adding 3-fold volume of acetonitrile, and the mixture was vortexed (1 min) and sonicated (1 min) before centrifugation (7220 g, 5 min). The pooled urine samples were centrifuged (7220 g, 5 min). Then the supernatant was transferred into a clean tube and evaporated to dryness under the nitrogen stream. The residues were redissolved with an appropriate volume of acetonitrile/water (20: 80, v: v). After centrifugation, the redissolved solution was transferred into an HPLC vial for UHPLC-Orbitrap-HRMS (15000 g, 10 min, 4°C).
# [2] = system: cysteine S-conjugate β-lyase; experiment: Effect of cysteine S-conjugate β-lyase inhibitor AOAA on the metabolism of BPI-460372 (rat urine); conditions: for Area ratio in rat urine, mean (%CV): 20 mg/kg BPI-460372 + 100 mg/kg AOAA, once daily 21 days, urine 0-48 h on day 21; for Change of area ratio in rat urine on coadministration with AOAA: 20 mg/kg BPI-460372 with versus without 100 mg/kg AOAA
# Experimental: To investigate the effect of cysteine S-conjugate β-lyase on the metabolism of BPI-460372, SD rats were treated with 20 mg/kg BPI-460372 alone (n=3, male) or 20 mg/kg BPI-460372 coadministration with 100 mg/kg cysteine S-conjugate β-lyase inhibitor AOAA (n=3, male), once daily for 21 consecutive days. On day 21, urine samples were collected at 0-8, 8-24 and 24-48 h. The same percentage of urine samples from each rat was taken at these three time intervals and mixed. The samples were analyzed by LC-MS/MS and then semi-quantified using the peak area ratio of analyte versus IS.
# [3] = Metabolite identification in dog plasma; assay type: in vivo, beagle dogs; conditions: oral 8 mg/kg BPI-460372, average of male and female pooled samples
# Experimental: as §1, §2, §3
# monkey hepatocytes [4] = experiment: Metabolism and metabolite formation in hepatocytes; assay type: in vitro ADME, cynomolgus monkey; conditions: cynomolgus monkey hepatocytes, 10 µM BPI-460372, 4 h incubation
# Excerpt: (§4) All the samples were duplicates.
# dog hepatocytes [5] = experiment: Metabolism and metabolite formation in hepatocytes; assay type: in vitro ADME, beagle dog; conditions: beagle dog hepatocytes, 10 µM BPI-460372, 4 h incubation
# Excerpt: as §4
# rat hepatocytes [6] = experiment: Metabolism and metabolite formation in hepatocytes; assay type: in vitro ADME, SD rat; conditions: SD rat hepatocytes, 10 µM BPI-460372, 4 h incubation
# Excerpt: as §4
# mouse hepatocytes [7] = experiment: Metabolism and metabolite formation in hepatocytes; assay type: in vitro ADME, ICR mouse; conditions: ICR mouse hepatocytes, 10 µM BPI-460372, 4 h incubation
# Excerpt: as §4
# human hepatocytes [8] = experiment: Metabolism and metabolite formation in hepatocytes; conditions: human hepatocytes, 10 µM BPI-460372, 4 h incubation
# Experimental: 10 µM BPI-460372 was incubated in five species (human, cynomolgus monkey, beagle dog, SD rat, and ICR mouse) hepatocytes (1 × 10^6 cells·min^-1) at 37 °C for 4 h. 7-EC, as positive control, was incubated for 0 h and 4 h. For blank control, hepatocytes were inactivated by adding ice-cold acetonitrile, and then the BPI-460372 solution was added. All the samples were duplicates. Incubations were stopped using the same volume of cold acetonitrile. The tube was vortexed, and the duplicate samples were combined. Metabolite profiling and identification of BPI-460372 were conducted by using UHPLC-Orbitrap-HRMS. The samples of 7-EC were analyzed by LC-MS/MS and then semi-quantified using the peak area ratio of analyte versus IS.
# For hepatocyte metabolite identification, the different metabolites of BPI-460372 were detected using an ACQUITY UPLC HSS T3 column (1.8 µm, 100 mm × 2.1 mm) and ACQUITY UPLC BEH C18 column (1.7 µm, 100 mm × 2.1 mm) for rat and dog metabolite identification. The mobile phase contained a mixture of 0.1% formic acid in water (A) and 0.1% formic acid in acetonitrile (B). The gradient elution program was as follows: 0.0-1.0 min, 5% B; 1.0-7.0 min, 5%-30% B; 7.0-12.0 min, 30%-80% B; 12.0-16.0 min, 80%-95% B; 16.0-18.0 min, 95% B; 18.0-18.1 min, 95%-5% B. Then, 5% B from 18.1 to 20.0 min was maintained for equilibration. The flow rate was set to 0.5 mL/min, and the column temperature was kept at 40°C. Eluted fractions were monitored by a UV detector at 314 nm.
# [9] = Metabolic stability in hepatocytes; conditions: hepatocytes
# Experimental: (§5) After mixing, 20 μL of cell suspension was serially transferred into 200 μL of cold acetonitrile containing IS at the time points of 0, 5, 15, 30, 60, and 120 min, respectively.
# (§6) The metabolic stability was assessed by measuring the depletion of substrate. The half-life (t1/2), intrinsic clearance (CLint, in virto, µL·min^-1·million cells^-1), whole liver intrinsic clearance (CLint, in vivo, mL·min-1·kg^-1), and in vivo hepatic clearance (CLH, mL·min-1·kg^-1) were calculated following a reported method. In the calculation of CLH, the fraction drug unbound (Fub) was set as 1. The hepatic blood flow, liver weight, and hepatocellularity of five species were used for the calculation of CLint, in vivo [13, 14]. The hepatic extraction ratio (Eh) means the ratio of CLH to hepatic blood flow.
# dog hepatocytes [10] = experiment: Metabolic stability in hepatocytes; conditions: dog hepatocytes
# Experimental: as §5, §6
# human hepatocytes [11] = experiment: Metabolic stability in hepatocytes; conditions: human hepatocytes
# Experimental: as §5, §6
# monkey hepatocytes [12] = experiment: Metabolic stability in hepatocytes; conditions: monkey hepatocytes
# Experimental: as §5, §6
# mouse hepatocytes [13] = experiment: Metabolic stability in hepatocytes; conditions: mouse hepatocytes
# Experimental: as §5, §6
# rat hepatocytes [14] = experiment: Metabolic stability in hepatocytes; conditions: rat hepatocytes
# Experimental: as §5, §6
structure (smiles),measurement,setting,value
CC(=O)NC(CSCC(O)C(=O)N1CC(n2c(=O)n(-c3ccc(C(F)(F)F)cc3)c3cncnc32)C1)C(=O)O (stereo not drawn) [M568],"Relative abundance of MS peak areas, Rat Bile 0-48 h",[1],3.22%
same,"Relative abundance of MS peak areas, Rat Feces 0-48 h",[1],0.45%
same,"Relative abundance of MS peak areas, Rat Urine 0-48 h",[1],1.80%
same,"Area ratio in rat urine, mean (%CV)",[2],0.06 (20)
same,Change of area ratio in rat urine on coadministration with AOAA,[2],reduced
C=CC(=O)N1CC(n2c(=O)n(-c3ccc(C(F)(F)F)cc3)c3nccnc32)C1 [M389],"Relative abundance of MS peak areas, Rat Bile 0-48 h",[1],0.040%
same,"Relative abundance of MS peak areas, Rat Feces 0-48 h",[1],16.59%
same,"Relative abundance of MS peak areas, Rat Urine 0-48 h",[1],0.050%
same,"Relative abundance of MS peak areas, Rat Plasma 0-24 h",[1],0.67%
same,"Relative abundance of MS peak areas, Dog Plasma 0-48 h",[3],0.15%
NCC(C(=O)O)n1c(=O)n(-c2ccc(C(F)(F)F)cc2)c2nccnc21 (stereo not drawn) [M367],"Relative abundance of MS peak areas, Rat Feces 0-48 h",[1],2.77%
same,"Relative abundance of MS peak areas, Rat Urine 0-48 h",[1],2.55%
same,"Relative abundance of MS peak areas, Rat Plasma 0-24 h",[1],0.065%
same,"Relative abundance of MS peak areas, Dog Plasma 0-48 h",[3],0.83%
CC(=O)N1CC(n2c(=O)n(-c3ccc(C(F)(F)F)cc3)c3nccnc32)C1 [M377],UV (314 nm) Peak Areas Relative Abundance,monkey hepatocytes [4],2.50%
same,UV (314 nm) Peak Areas Relative Abundance,dog hepatocytes [5],2.44%
same,UV (314 nm) Peak Areas Relative Abundance,rat hepatocytes [6],2.6%
same,UV (314 nm) Peak Areas Relative Abundance,mouse hepatocytes [7],3.57%
same,UV (314 nm) Peak Areas Relative Abundance,human hepatocytes [8],1.48%
CC(=O)NC(CSCC(F)C(=O)N1CC(n2c(=O)n(-c3ccc(C(F)(F)F)cc3)c3nccnc32)C1)C(=O)O (stereo not drawn) [M570],UV (314 nm) Peak Areas Relative Abundance,dog hepatocytes [5],2.44%
same,UV (314 nm) Peak Areas Relative Abundance,rat hepatocytes [6],2.6%
same,UV (314 nm) Peak Areas Relative Abundance,mouse hepatocytes [7],3.57%
same,"Relative abundance of MS peak areas, Rat Bile 0-48 h",[1],45.40%
same,"Relative abundance of MS peak areas, Rat Feces 0-48 h",[1],3.96%
same,"Relative abundance of MS peak areas, Rat Urine 0-48 h",[1],34.25%
same,"Relative abundance of MS peak areas, Rat Plasma 0-24 h",[1],0.12%
same,UV (314 nm) Peak Areas Relative Abundance,human hepatocytes [8],1.48%
same,"Area ratio in rat urine, mean (%CV)",[2],0.08 (40)
same,Change of area ratio in rat urine on coadministration with AOAA,[2],reduced
CCC(=O)N1CC(n2c(=O)n(-c3ccc(C(F)(F)F)cc3)c3nccnc32)C1 [M391],"Relative abundance of MS peak areas, Rat Feces 0-48 h",[1],21.50%
same,"Relative abundance of MS peak areas, Rat Urine 0-48 h",[1],0.015%
same,"Relative abundance of MS peak areas, Rat Plasma 0-24 h",[1],0.35%
same,"Relative abundance of MS peak areas, Dog Plasma 0-48 h",[3],0.36%
"C[C@]12CC[C@H]3[C@@H](CCC4=CC(=O)CC[C@@]43C)[C@@H]1CC[C@@H]2O [Testosterone, testosterone]",half-life at 1 µM,"[9]; ICR, mouse",14.9 min
same,half-life at 1 µM,"[9]; SD, rat",13.9 min
same,half-life at 1 µM,"[9]; beagle, dog",14.1 min
same,half-life at 1 µM,[9]; human,13.3 min
same,half-life at 1 µM,[9]; monkey,11.5 min
same,"CLint, in virto",dog hepatocytes [10]; 1 µM,49.1 µL·min^-1·Million cells^-1
same,CLH,dog hepatocytes [10]; Fub set as 1,28.3 mL/min/kg
same,"CLint, in vivo",dog hepatocytes [10]; scaled to whole liver,337.8 mL/min/kg
same,"CLint, in virto",human hepatocytes [11]; 1 µM,52.2 µL·min^-1·Million cells^-1
same,CLH,human hepatocytes [11]; Fub set as 1,18.7 mL/min/kg
same,"CLint, in vivo",human hepatocytes [11]; scaled to whole liver,188.7 mL/min/kg
same,CLH,monkey hepatocytes [12]; Fub set as 1,36.6 mL/min/kg
same,"CLint, in vivo",monkey hepatocytes [12]; scaled to whole liver,217.3 mL/min/kg
same,"CLint, in virto",mouse hepatocytes [13]; 1 µM,46.6 µL·min^-1·Million cells^-1
same,CLH,mouse hepatocytes [13]; Fub set as 1,77.4 mL/min/kg
same,"CLint, in vivo",mouse hepatocytes [13]; scaled to whole liver,554.1 mL/min/kg
same,CLH,rat hepatocytes [14]; Fub set as 1,44.6 mL/min/kg
same,"CLint, in vivo",rat hepatocytes [14]; scaled to whole liver,233.5 mL/min/kg
